The source of these data is paper PMC5590105 (Chemical communications (Cambridge, England), 2017).

For the experiment, the target named is T1, heparanase (Homo sapiens, UniProt Q9Y251).
T1 sequence (Q9Y251 158-543 limits assumed): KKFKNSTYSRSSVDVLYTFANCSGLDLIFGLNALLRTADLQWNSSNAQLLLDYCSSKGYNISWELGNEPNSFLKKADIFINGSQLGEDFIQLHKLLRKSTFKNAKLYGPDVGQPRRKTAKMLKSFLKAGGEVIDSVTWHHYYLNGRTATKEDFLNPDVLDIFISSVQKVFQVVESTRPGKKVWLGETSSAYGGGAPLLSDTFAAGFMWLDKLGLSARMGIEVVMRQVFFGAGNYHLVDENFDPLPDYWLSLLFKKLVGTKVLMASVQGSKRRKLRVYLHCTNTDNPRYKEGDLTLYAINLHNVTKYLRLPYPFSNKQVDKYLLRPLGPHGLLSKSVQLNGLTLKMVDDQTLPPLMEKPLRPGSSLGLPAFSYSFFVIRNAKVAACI
T1 sequence (Q9Y251 36-109 limits assumed): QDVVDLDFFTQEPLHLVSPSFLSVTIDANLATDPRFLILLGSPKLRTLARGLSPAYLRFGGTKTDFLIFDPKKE
In words: colorimetric WST-1 assay of cleavage by heparanase. The class given is biochemical. The note with it: WST-1 colorimetric assay, over 21 h.

Structures are written as SMILES.

As for `CO[C@H]1O[C@H](COS(=O)(=O)O)[C@@H](O[C@@H]2O[C@@H](C(=O)O)[C@@H](O[C@H]3O[C@H](COS(=O)(=O)O)[C@@H](O[C@@H]4O[C@H](C(=O)O)[C@@H](O[C@H]5O[C@H](COS(=O)(=O)O)[C@@H](O)[C@H](O)[C@H]5NS(=O)(=O)O)[C@H](O)[C@H]4O)[C@H](OS(=O)(=O)O)[C@H]3NS(=O)(=O)O)[C@H](O)[C@H]2OS(=O)(=O)O)[C@H](O)[C@H]1NS(=O)(=O)O` [Fondaparinux], the hydrolysis by heparanase result is “readily cleaved by heparanase”.
